# Measured values: US7507727B2, “Substituted quinobenzoxazine analogs and methods of using thereof” (Cylene Pharmaceuticals, Inc., priority 2003, dated 2009)
# System: HCT-116 cells
# Assay: Annexin V-Alexa 488 staining
# Assay type: cell-based
# Details: 0.5 uM, control
# Description: The following protocol was followed for this example. […] Incubate o/n or up to 24 hrs at 37° C. in CO2 incubator. […] Keep one or two untreated plates (medium only) as control plates. […] Harvest cells (collect attached as well as floating cells). Wash cells twice with cold PBS. Re-suspend cells in 1× Annexin binding buffer.
# Count cells and dilute in 1× Annexin binding buffer to ˜1×10^6 cells/0.1 ml, preparing a sufficient volume to have 100 μl per assay. Add 5 μl of the Annexin V conjugate to each 100 μl of cell suspension. Add 4 μl of propidium iodide solution (stock=1 mg/ml) to each 100 μl of cell suspension. Incubate sample at RT for 15 minutes. Add 400 μl Annexin binding buffer, mix gently and keep samples on ice. Analyze stained cells immediately by flow cytometry.
smiles,measurement,value
CC[C@@]1(O)C(=O)OCc2c1cc1n(c2=O)Cc2cc3ccccc3nc2-1 [CPT],Annexin V / duplex DNA dye response,mixed apoptotic/necrotic response
